Reference: ChEMBL document CHEMBL3044984, “Synthesis of 2-(5, 7-Difluoro-3-indolyl)-propionic Acid (5, 7-F2-IPA) and 2-(5, 7-Difluoro-3-indolyl)isobutyric Acid (5, 7-F2-IIBA) and Their Respective Auxin and Antiauxin Activities” (2001)
Activity calls are given as the source filed them. No cut-off for these calls is given here.

Experiments:
[1] = tested on: Avena sativa; assay: Antiauxin activity in Avena sativa cv. Victory-1 assessed as growth inhibition at 1 x 10^-4 M; format: functional, organism-based
[2] = tested on: Avena sativa; assay: Auxin activity in Avena sativa cv. Victory-1 assessed as increase of auxin-induced growth at 10^-5 M; format: functional
[3] = tested on: Avena sativa; assay: Antiauxin activity in Avena sativa cv. Victory-1 assessed as auxin-induced growth inhibition at 10^-5 to 10^-4 M; format: functional, organism-based
[4] = tested on: Avena sativa; assay: Auxin activity in Avena sativa cv. Victory-1 assessed as coleoptile elongation at 3 x 10^-6 M; format: functional, organism-based
[5] = tested on: Avena sativa; assay: Auxin activity in Avena sativa cv. Victory-1 assessed as coleoptile elongation; format: functional, organism-based
[6] = tested on: Avena sativa; assay: Auxin activity in Avena sativa cv. Victory-1 assessed as increase of auxin-induced growth at 5.6 x 10^-5 M; format: functional, organism-based
[7] = tested on: Avena sativa; assay: Antiauxin activity in Avena sativa cv. Victory-1 assessed as auxin-induced growth inhibition at 3 x 10^-5 M; format: functional, organism-based
[8] = tested on: Avena sativa; assay: Antiauxin activity in Avena sativa cv. Victory-1 assessed as growth inhibition; format: functional, organism-based

Row | Compound | growth inhibition (GI) [1] | Activity [4] | Activity [5] | growth inhibition (GI) [8] | also measured
1 | CC(C)(C(=O)O)c1c[nH]c2c(F)cc(F)cc12 | Active | Active | Active | – | Activity [2]: 80%; growth inhibition (GI) [3]: Active
2 | CC(C(=O)O)c1c[nH]c2c(F)cc(F)cc12 (centres undefined) | Active | Active | Active | – | –
3 | O=C(O)Cc1c[nH]c2ccccc12 | – | – | Active | – | Activity [6]: inactive; growth inhibition (GI) [7]: Active
4 | CC(C)(C(=O)O)c1c[nH]c2ccccc12 | – | – | – | inactive | –
5 | CC(C)(C(=O)O)c1c[nH]c2c(Cl)cc(Cl)cc12 | – | – | inactive | – | –
6 | O=C(O)Cc1c[nH]c2c(F)cc(F)cc12 | – | – | – | Active | –
